The results in this text go back to article PMC5954141, “Structure-guided Discovery of Dual-recognition Chemibodies” (Scientific Reports, 2018).

Like-named read-outs stand apart in the source and are kept apart here.

As a reminder, the IC50 is the point on the concentration scale where inhibition reaches its midpoint.

The target in this assay is T1, DPP-IV enzyme (Rattus norvegicus, UniProt P14740).
T1 construct: made in house
Nature of the assay: DPP-IV dipeptide (Ala-Pro-AFC) cleavage inhibition, fluorescent assay. In kind it is biochemical. The method, then:
DPP-IV catalytic activity and inhibition of dipeptide cleavage was measured using a fluorescent assay performed at room temperature in 384-well, black polypropylene microplates. […] Assay data shown in Fig. 3 were performed with a one-hour incubation time. The data were fit to the four-parameter model using a Levenburg–Marquardt nonlinear regression algorithm. Figure 3b,c were generated using GraphPad Prism v6.
Rat DPP-IV enzyme and Fab mutant proteins were expressed and purified as previously described. […] For x-ray diffraction data collection, crystals were transferred into well solution with 30% (w/v) ethylene glycol and then flash frozen in liquid nitrogen.

Where [1] appears, read: dipeptide substrate cleavage, read-out: DPP-IV IC50.
The mark [2] stands for this setting: Table S6, Ala-Pro-AFC at 10 µM, one-hour incubation, triplicate, read-out: measured IC50's.

T1 sequence (P14740 whole entry): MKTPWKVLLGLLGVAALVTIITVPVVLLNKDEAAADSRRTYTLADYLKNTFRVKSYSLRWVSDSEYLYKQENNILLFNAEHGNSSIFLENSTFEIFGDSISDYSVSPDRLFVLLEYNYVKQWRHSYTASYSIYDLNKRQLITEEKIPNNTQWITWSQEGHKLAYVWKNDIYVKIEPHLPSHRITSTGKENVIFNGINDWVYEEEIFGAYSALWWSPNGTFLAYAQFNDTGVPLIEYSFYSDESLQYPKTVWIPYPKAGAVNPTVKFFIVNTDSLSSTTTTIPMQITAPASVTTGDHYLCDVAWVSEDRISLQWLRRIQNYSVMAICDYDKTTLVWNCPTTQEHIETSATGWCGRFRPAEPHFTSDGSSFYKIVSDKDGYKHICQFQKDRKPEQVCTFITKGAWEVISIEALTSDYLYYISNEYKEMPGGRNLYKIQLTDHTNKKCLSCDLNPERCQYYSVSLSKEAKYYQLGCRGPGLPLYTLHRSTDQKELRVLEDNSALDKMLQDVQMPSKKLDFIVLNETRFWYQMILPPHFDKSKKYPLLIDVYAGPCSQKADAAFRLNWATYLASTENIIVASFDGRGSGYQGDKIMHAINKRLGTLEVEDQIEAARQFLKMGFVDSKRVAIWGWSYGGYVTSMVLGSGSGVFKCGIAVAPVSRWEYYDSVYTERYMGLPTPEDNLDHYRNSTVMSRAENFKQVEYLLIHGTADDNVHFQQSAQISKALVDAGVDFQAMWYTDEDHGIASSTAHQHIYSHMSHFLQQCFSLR

Regarding `CNC(=O)CN1CCN(C(=O)C[C@H](N)Cc2cc(F)c(F)cc2F)CC1.Cl` [compound 2, (R)-2-(4-(3-amino-4-(2,4,5-trifluorophenyl)butanoyl)piperazin-1-yl)-N-methylacetamide hydrochloride], the IC50 under setting [1] was determined as 130 nM. The “potency loss as compared with sitagliptin” value (same experimental conditions) is recorded as “seven-fold”. Take `COCCOCCOCCOCCNC(=O)CN1CCN(C(=O)C[C@H](N)Cc2cc(F)c(F)cc2F)CC1` [compound 4 (n = 3)]: the IC50 under setting [1] was found to be 105 nM. With `COCCOCCOCCOCCOCCOCCOCCOCCNC(=O)CN1CCN(C(=O)C[C@H](N)Cc2cc(F)c(F)cc2F)CC1` [compound 4 (n = 7)], the IC50 under setting [1] came to 70 nM. As to `CC(=O)NCCOCCOCCOCCNC(=O)CN1CCN(C(=O)C[C@H](N)Cc2cc(F)c(F)cc2F)CC1` [compound 6 (n = 3)], the IC50 under setting [2] was found to be 141 nM. The same measure, in the same setting: with `CC(=O)NCCOCCOCCOCCOCCNC(=O)CN1CCN(C(=O)C[C@H](N)Cc2cc(F)c(F)cc2F)CC1` [compound 6 (n = 4)] the figure was 100 nM; with `CC(=O)NCCOCCOCCOCCOCCOCCNC(=O)CN1CCN(C(=O)C[C@H](N)Cc2cc(F)c(F)cc2F)CC1` [compound 6 (n = 5)], 146 nM; with `CC(=O)NCCOCCOCCOCCOCCOCCOCCNC(=O)CN1CCN(C(=O)C[C@H](N)Cc2cc(F)c(F)cc2F)CC1` [compound 6 (n = 6)], 119 nM. On the same count and under the same terms, with `CC(=O)NCCOCCOCCOCCOCCOCCOCCOCCNC(=O)CN1CCN(C(=O)C[C@H](N)Cc2cc(F)c(F)cc2F)CC1` [compound 6 (n = 7)] the figure was 134 nM; with `CC(=O)NCCOCCOCCOCCOCCOCCOCCOCCOCCNC(=O)CN1CCN(C(=O)C[C@H](N)Cc2cc(F)c(F)cc2F)CC1` [compound 6 (n = 8)], 124 nM. Still for that read-out and setting: with `CC(=O)NCCOCCOCCOCCOCCOCCOCCOCCOCCOCCOCCNC(=O)CN1CCN(C(=O)C[C@H](N)Cc2cc(F)c(F)cc2F)CC1` [compound 6 (n = 10)] the figure was 152 nM.

Consider `CC(=O)NCCOCCOCCOCCOCCOCCOCCOCCOCCOCCOCCOCCNC(=O)CN1CCN(C(=O)C[C@H](N)Cc2cc(F)c(F)cc2F)CC1` [compound 6 (n = 11)], for which the IC50 under setting [2] amounted to 160 nM.
